In US4797427A, “Aromatic diamines containing sulfonic acid aryl esters, a process for their production and their use in the production of polyurethane plastics” (Bayer Aktiengesellschaft, priority 1987, dated 1989):

Assay: Ames test
Type: cell-based

## Cc1c(N)cc(S(=O)(=O)Oc2ccccc2)cc1N [2,6-diaminotoluene-4-sulfonic acid phenyl ester]
  Ames test: Ames-negative
